Consider two compounds from ChEMBL document CHEMBL1134186, “Protein phosphatase 1 catalyses the direct hydrolytic cleavage of phosphate monoester in a ternary complex mechanism” (Bioorg Med Chem Lett, 2001).

As a reminder, the Km is the concentration of substrate that gives half-maximal velocity. For orientation: Ki means the equilibrium dissociation constant of an inhibitor or competing ligand from its target.

Where a SMILES comes first, the peptide text is derived from it.

The test system of one data set is protein phosphatase. Put plainly: Compound was evaluated for the Michaelis-Menten constant, Km in a generic protein phosphatase stopped assay system. Type of data set: ADME.
A short description of data set [1]: Compound was evaluated for the Ki value for peptide alcohol for competitive inhibition in the presence of Mn2+ ions at pH 7.5. Type of data set: ADME.

Turning to `CC(=O)N[C@@H](CCCN=C(N)N)C(=O)N[C@@H](CCCN=C(N)N)C(=O)N[C@@H](C)C(=O)N[C@H](C(=O)N[C@H](C(=O)N[C@@H](C)C(=O)O)C(C)C)[C@@H](C)OP(=O)(O)O` (HELM PEPTIDE1{[ac].R.R.A.[C[C@@H](OP(=O)(O)O)[C@H](N[*:1])C(=O)[*:2]].V.A}$$$$V2.0), in the data set with protein phosphatase, the Michaelis-Menten constant (Km) turned out to be 3.7 mM. Besides, in data set [1], the Ki amounted to 1600 µM.

With H-RRATVA-OH, in data set [1], the Ki is > 30000 µM.
